Measured values: patent US9708251B2, “Unsaturated fatty alcohol alkoxylates from natural oil metathesis” (Stepan Company, priority 2012, dated 2017)

Experiments:
Format in all cases: physicochemical
[1] = Fabric cleaning: compaction (surfactant blends)
Method: The sample is formulated into surfactant blends having high actives content. Two experimental derivatives, A12-13 and A12-21, are evaluated.
In a first experiment, a three-component surfactant blend is prepared. This blend comprises the experimental sample (30 wt. %), a linear alkylbenzene sulfonate (15 wt. %), and an alkyl ether sulfate (15 wt. %). The appearance and viscosity of the blend are compared with those of similar three-component blends in which a standard alcohol ethoxylate replaces the experimental sample.
In a second experiment, a two-component surfactant blend is prepared in which the experimental sample and a linear alkylbenzene sulfonate are combined at a 1:1 actives ratio, beginning with a high actives blend having a cloudy appearance. Water is gradually added and mixed with the surfactant blend at room temperature. […]

[2] = Emulsion stability testing of nonionic emulsifiers, Hallcomid solvent series; set-up: key to 24 h separation, appearance / 1 h separation, appearance / 1 h separation, amount: C = creamy; CO = creamy oil; O = oil; GC = gritty cream; NS = no separation; OC = oily cream; key to Spon. (spontaneity): G = good; F = fair; P = poor
Method: (§1) Nonionic samples contain a low amount of water (<1%) and are prepared as emulsifiable concentrates with three pesticides using two different solvent systems. In the aromatic solvent series, the nonionic sample replaces Toximul® 8240 (castor oil ethoxylate, 36 POE, Stepan), and in the Hallcomid™ (N,N-dimethylcaprylamide/N,N-dimethylcapramide, Stepan) solvent series, the nonionic sample replaces Ninex® MT-630F.
(§2) Hallcomid Solvent Series.
(§3) Sample preparation: The surfactants are combined and stirred until homogeneous, with the nonionic sample melted if needed prior to combination. Controls 1-3 are made by using Ninex MT-630F in the amounts indicated instead of the nonionic sample.
(§4) Emulsion Stability Testing
(§5) A Mohr pipette is used to feed pesticide/surfactant concentrates to each cylinder.

[3] = Agrichemical solvent analysis: active solubility; conditions: room temperature
Method: Solvency strength of potential agrichemical solvents is evaluated by identifying the solubility level of three standard pesticides in the solvent by weight percent: 2,4-D acid, imidacloprid, and tebuconazole. […] The active material is also accurately weighed before addition. Initial amounts of active material are approximately: 2,4-D: 0.3 g; imidacloprid: 0.02 g; tebuconazole: 0.3 g. Solvent and pesticide active are combined, allowed to mix for 1 h at room temperature, and then inspected for the presence of undissolved active material. Additional active material is added in appropriately small increments until it no longer dissolves completely. This mixture is then stirred for 24 h at room temperature, and if the active has completely dissolved, additional active ingredient is added and the mixture is stirred another 24 h at room temperature. The percent solubility is recorded, and performance is compared with that of a standard agricultural solvent.

[4] = Emulsion stability testing of nonionic emulsifiers, Hallcomid solvent series; set-up: key: C = creamy; CO = creamy oil; O = oil; GC = gritty cream; NS = no separation; OC = oily cream; conditions: Bifenthrin 240 g/L in Hallcomid M-8-10, 34 ppm water
Method: as §1, §2, §3, §4, §5

[5] = Solubility evaluation: enhanced oil recovery (EOR); conditions: for Comments (appearance) / Soluble?: 1 wt. % sample, 1% sodium chloride brine
Method: Samples are prepared in a 10% stock solution and evaluated at 1 wt. % with a brine concentration of 1% sodium chloride. Replicate experiments are performed at each temperature with each sample.

[6] = Surfactant phase behavior study (cross-polarized microscopy); conditions: room temperature
Procedure, shortened: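 Saturated analogs serve as comparators. Water dilutions of the product, stepped at 2-4% near transitions, equilibrated between slide and cover glass and assigned phase by cross-polarized microscopy texture at 100-400×, 20-22° C. Boundaries lie within ±5% actives; some samples checked by viscosity at 25° C.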

[7] = Emulsion stability testing of nonionic emulsifiers, aromatic solvent series; set-up: key to 24 h separation, appearance / 1 h separation, appearance / 1 h separation, amount: C = creamy; CO = creamy oil; O = oil; GC = gritty cream; NS = no separation; OC = oily cream; key to Spon. (spontaneity): G = good; F = fair; P = poor
Method: as §1
Sample preparation: Ninate® 60E (calcium alkylbenzenesulfonate, Stepan) and the test sample are stirred until homogeneous. […] Controls 1-3 are made by using Toximul 8240 in the amounts indicated instead of the nonionic sample.
Formulations: • 1. Bifenthrin, 240 g/L (2.99 g), Aromatic 100 (ExxonMobil, 8.05 g), Ninate 60E (0.38 g), and nonionic sample or Toximul 8240 (0.58 g). • 2. 2,4-D ester, 480 g/L (8.90 g), Exxsol® D-110 (ExxonMobil, 2.50 g), Ninate 60E (0.36 g), and nonionic sample or Toximul 8240 (0.24 g). • 3. Tebuconazole, 360 g/L (4.45 g), N-methyl-2-pyrrolidone (6.35 g), Ninate 60E (0.48 g), nonionic sample or Toximul 8240 (0.72 g).
as §4, §5

[8] = three-component blend: sample 30 wt. %, linear alkylbenzene sulfonate 15 wt. %, alkyl ether sulfate 15 wt. %
[9] = 2,4-D diester 480 g/L in Hallcomid M-8-10, 34 ppm water
[10] = 2,4-D diester 480 g/L in Hallcomid M-8-10, 1000 ppm water
[11] = Bifenthrin 240 g/L in Hallcomid M-8-10, 34 ppm water
[12] = Bifenthrin 240 g/L in Hallcomid M-8-10, 1000 ppm water
[13] = Tebuconazole 360 g/L in Hallcomid M-8-10, 34 ppm water
[14] = Tebuconazole 360 g/L in Hallcomid M-8-10, 1000 ppm water
[15] = 2,4-D ester 480 g/L in Exxsol D-110, 34 ppm water
[16] = 2,4-D ester 480 g/L in Exxsol D-110, 1000 ppm water
[17] = Bifenthrin 240 g/L in Aromatic 100, 34 ppm water
[18] = Bifenthrin 240 g/L in Aromatic 100, 1000 ppm water
[19] = Tebuconazole 360 g/L in N-methyl-2-pyrrolidone, 34 ppm water
[20] = Tebuconazole 360 g/L in N-methyl-2-pyrrolidone, 1000 ppm water

CCC=CCCCCCCCCOCCOCCOCCOCCOCCOCCOCCOCCOCCO (mixture of isomers) [A12-21]
Appearance, 25° C. [1, 8]: cloudy, flowable gel | Viscosity [1, 8]: 5600 cPs | % Actives at which blend is clear and homogeneous at 25° C. ([1]; two-component blend with linear alkylbenzene sulfonate, 1:1 actives ratio): 51 % Actives

C=CCCCCCCCCOCCOCCOCCO [A10-7]
1 h separation, amount [2, 9]: 5.6 mL | 1 h separation, appearance [2, 9]: C | 24 h separation, amount [2, 9]: 10 mL | 24 h separation, appearance [2, 9]: C | Spon. (spontaneity) [2, 9]: F | 1 h separation, amount [2, 10]: 6 mL | 1 h separation, appearance [2, 10]: C | 24 h separation, amount [2, 10]: 7.5 mL | 24 h separation, appearance [2, 10]: C | Spon. (spontaneity) [2, 10]: F | 1 h separation, amount [2, 11]: NS | Spon. (spontaneity) [2, 11]: F | 1 h separation, amount [2, 12]: 10 mL | 1 h separation, appearance [2, 12]: CO | 24 h separation, amount [2, 12]: 3 O, 3 CO | Spon. (spontaneity) [2, 12]: P | 1 h separation, amount [2, 13]: 2.5 mL | 1 h separation, appearance [2, 13]: C | 24 h separation, amount [2, 13]: 5 mL | 24 h separation, appearance [2, 13]: C | Spon. (spontaneity) [2, 13]: F | 1 h separation, amount [2, 14]: 3 mL | 1 h separation, appearance [2, 14]: C | 24 h separation, amount [2, 14]: 5 mL | 24 h separation, appearance [2, 14]: C | Spon. (spontaneity) [2, 14]: F | solubility of 2,4-D Acid in the solvent [3]: 29.5 weight percent | solubility of Imidacloprid in the solvent [3]: 2.9 weight percent | solubility of Tebuconazole in the solvent [3]: 13.5 weight percent | 24 h separation, amount [4]: NS | Comments (appearance) ([5]; 20.7 °C): white, opaque | Soluble? ([5]; 20.7 °C): no | Comments (appearance) ([5]; 51.5 °C): white, opaque | Soluble? ([5]; 51.5 °C): no | Comments (appearance) ([5]; 56.1 °C): white, hazy | Soluble? ([5]; 56.1 °C): no | Overall performance (EOR solubility) ([5]; versus control fatty alcohol ethoxylate): Overall performance of A10-7: Equal to control | combined isotropic phases (clear and opaque), share of the total [6]: about 50% | Isotropic Clear phase region ([6]; in deionized water): 70-100 % Actives Level | Isotropic Opaque phase region ([6]; in deionized water): 0-20 % Actives Level | Lamellar phase region ([6]; in deionized water): 20-70 % Actives Level | 1 h separation, amount [7, 15]: 4 mL | 1 h separation, appearance [7, 15]: CO | 24 h separation, amount [7, 15]: 1 O, 4.5 CO | Spon. (spontaneity) [7, 15]: P | 1 h separation, amount [7, 16]: 4 mL | 1 h separation, appearance [7, 16]: O | 24 h separation, amount [7, 16]: 4 mL | 24 h separation, appearance [7, 16]: O | Spon. (spontaneity) [7, 16]: P | 1 h separation, amount [7, 17]: 7 mL | 1 h separation, appearance [7, 17]: CO | 24 h separation, amount [7, 17]: 6.5 mL | 24 h separation, appearance [7, 17]: CO | Spon. (spontaneity) [7, 17]: P | 1 h separation, amount [7, 18]: 6 mL | 1 h separation, appearance [7, 18]: O | 24 h separation, amount [7, 18]: 5 mL | 24 h separation, appearance [7, 18]: O | Spon. (spontaneity) [7, 18]: P | 1 h separation, amount [7, 19]: 2 mL | 1 h separation, appearance [7, 19]: GC | 24 h separation, amount [7, 19]: 3 mL | 24 h separation, appearance [7, 19]: GC | Spon. (spontaneity) [7, 19]: P | 1 h separation, amount [7, 20]: 2.5 mL | 1 h separation, appearance [7, 20]: GC | 24 h separation, amount [7, 20]: 3 mL | 24 h separation, appearance [7, 20]: GC | Spon. (spontaneity) [7, 20]: P
